In patent US11725187B2, “Selection of human hematopoetic stem cells using EPCR” (UNIVERSITE DE MONTREAL, priority 2016, dated 2023):

Test system: EPCR
Test: EPCR surface expression on cultured CD34+ cells by flow cytometry
Protocol: Fresh or cultured CB cells were labelled or sorted for different HSPC phenotypes using the following antibodies. […] Cells were analyzed on a BD Canto flow cytometer, and cell sorting (under low pressure conditions) was conducted on a BD Aria II cell sorter.

CC(C)n1cnc2c(NCCc3ccc(O)cc3)nc(-c3csc4ccccc34)nc21 [SR1]
increase in proportion of EPCR+ cells / EPCR expression (CB, mPB or BM CD34+ cells, 7 days, UM171 38 nM, SR1 1000 nM (FIG. 2)): small increase

Nc1cccc2c1CN(C1CCC(=O)NC1=O)C2=O (centres unmarked) [lenalidomide]
enrichment / expansion of EPCR+ population of cells (CD34+ cells (FIG. 17)): enriches
